Measured values from patent publication US5674905A, “Bicyclooctane and bicycloheptane derivatives” (James Black Foundation Limited, priority 1992, dated 1997).

What follows are molecules tested against T1, CCKB receptor (Mus musculus, UniProt P56481) (assay: radioligand binding assay at the CCKB receptor in mouse cortical membranes ([125I]-CCK8S)). Details: 150 min at 21±3°.
T1 construct: The cortex was dissected, weighed and homogenised in 40 ml ice-cold buffer; from tissue; host or cells: cerebral cortex membranes of male CD1 mice (Charles River)
T1 sequence (P56481 1-453): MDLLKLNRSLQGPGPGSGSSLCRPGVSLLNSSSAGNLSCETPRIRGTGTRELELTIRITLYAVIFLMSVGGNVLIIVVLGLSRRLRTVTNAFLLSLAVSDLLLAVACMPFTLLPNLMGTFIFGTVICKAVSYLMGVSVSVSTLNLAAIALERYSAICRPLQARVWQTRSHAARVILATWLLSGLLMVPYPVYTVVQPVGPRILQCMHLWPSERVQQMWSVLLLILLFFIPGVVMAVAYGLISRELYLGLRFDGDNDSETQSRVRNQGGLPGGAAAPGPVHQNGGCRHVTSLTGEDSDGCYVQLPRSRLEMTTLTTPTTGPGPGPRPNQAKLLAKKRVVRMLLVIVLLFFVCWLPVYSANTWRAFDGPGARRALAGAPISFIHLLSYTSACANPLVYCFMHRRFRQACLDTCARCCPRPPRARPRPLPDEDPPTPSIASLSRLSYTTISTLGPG
Experimental: The compounds of the examples were tested for binding at the CCKB receptor in mouse cortical membranes by means of a radioligand binding assay. The procedure was as follows:
The whole brains from male mice (CD1 22-25 g; Charles River) were removed and placed in ice-cold buffer (pH7.2 @ 21±3 °) of the following composition (mM); 10 HEPES, 130 NaCl, 4.7 KCl, 5 MgCl2, 1 EDTA and containing 0.25 g.1^-1 bacitracin. The cortex was dissected, weighed and homogenised in 40 ml ice-cold buffer using a Teflon-in-glass homogeniser. The homogenate was centrifuged at 39,800 g for 20 min at @ 4°, the supernatant discarded and the pellet resuspended by homogenisation in fresh buffer. The homogenate was recentrifuged (39,800 g; 20 min @4°) and the final pellet was resuspended in HEPES buffer to give a tissue concentration of 2 mg.ml^-1 (original wet weight).
The membranes ([…]) were incubated for 150 min at 21±3° in a final volume of 0.5 ml with HEPES buffer containing [^125 I]-CCK8S (0.05 ml; 200 pM NEN 2200 Ci.mmol^-1) and competing compound. Total and non-specific binding of [^125 I]-CCK8S were defined using 0.05 ml of buffer and 0.05 ml of […] L-365,260, respectively. The assay was terminated by rapid filtration through pre-soaked Whatman GF/B filters using a Brandell Cell harvester. The filters were washed (3×3 ml) with ice-cold 50 mM Tris-HC1 (pH7.4 @ 4° C.) and bound radioactivity determined by counting (1 min.) in a gamma-counter.

| CCKB pKi | Structure (SMILES) |
| --- | --- |
| 5.5 | O=C(NCC12CC3CC(CC(C3)C1)C2)C1C2CC(c3ccccc32)C1C(=O)N1CCC[C@@H]1C(=O)O (mixture of isomers) [Example 59, (±)-endo-cis-6-(2R-carboxy-pyrrolidinocarbonyl)-7-(1-adamantylmethylaminocarbonyl)-2,3-benzobicyclo[2.2.1]heptane] |
| 5.6 | O=C(O)CNC(=O)[C@@H]1CCCN1C(=O)C1C2CCC(c3ccccc32)C1C(=O)NCC12CC3CC(CC(C3)C1)C2 (stereo partly drawn) [Example 45, cis-exo-7-(2R-carboxymethylaminocarbonylpyrrolidinocarbonyl)-8-(1-adamantylmethylaminocarbonyl)-2,3-benzobicyclo[2.2.2]octane] |

Same assay, conditions: 150 min at 21±3°, read-out: CCKB pKi (converted)

| Structure (SMILES) | Ki |
| --- | --- |
| O=C(NCC12CC3CC(CC(C3)C1)C2)C1C2C=CC(CC2)C1C(=O)N1CCC[C@@H]1C(=O)O (mixture of isomers) [Example 33, cis-(±)-2-(1-R-carboxy-pyrrolidinocarbonyl)-3-(1-adamantylmethylaminocarbonyl)-bicyclo[2.2.2]oct-5-ene] | 15.8 µM |
| O=C(NCC12CC3CC(CC(C3)C1)C2)C1C(C(=O)N2CCC[C@@H]2C(=O)O)C2C=CC1C2(c1ccccc1)c1ccccc1 (mixture of isomers) [Example 53] | 1.58 µM |
| O=C(O)C1C2CC(c3ccccc32)C1C(=O)NCC12CC3CC(CC(C3)C1)C2 (mixture of isomers) [Example 57, endo-cis-(±)-7-(1-adamantylmethylaminocarbonyl)-2,3-benzobicyclo[2.2.1]hept-6-carboxylic acid] | 5.01 µM |
| O=C(O)C1C2c3ccccc3C(c3cc4ccccc4cc32)C1C(=O)NCC12CC3CC(CC(C3)C1)C2 (racemic) [Example 14, endo and exo cis-(±)-8-(1-adamantylmethylaminocarbonyl)-2,3-benzo-5,6-(2,3-naphtho)bicyclo[2.2.2]octane-7-carboxylic acid] | 0.316 µM |
| O=C(NCC12CC3CC(CC(C3)C1)C2)[C@@H]1[C@H](C(=O)O)[C@@H]2C=C[C@H]1c1ccccc12 (relative stereo) [Example 1, exo-(±)-cis-8-(1-adamantylmethylaminocarbonyl)-5,6-benzobicyclo[2.2.2]oct-2-ene-7-carboxylic acid] | 3.98 µM |
| O=C(NCC1CCCCC1)[C@@H]1[C@H](C(=O)O)[C@@H]2C=C[C@H]1c1ccccc12 (relative stereo) [Example 3, exo-(±)-cis8-(1-cyclohexylmethylaminocarbonyl)-5,6-benzobicyclo[2.2.2]oct-2-ene-7-carboxylic acid] | 25.1 µM |
| O=C(O)[C@@H]1[C@H](C(=O)NCC2CCCCC2)[C@H]2C=C[C@@H]1c1ccccc12 (relative stereo) [Example 4, endo-(±)-cis-8-(1-cyclohexylmethylaminocarbonyl)-5,6-benzobicyclo[2.2.2]oct-2-ene-7-carboxylic acid] | 39.8 µM |
| CCCCCCCCNC(=O)[C@@H]1[C@H](C(=O)O)[C@@H]2C=C[C@H]1c1ccccc12 (relative stereo) [Example 5, exo-(±)-cis-8-(octylaminocarbonyl)-5,6-benzobicyclo[2.2.2]oct-2-ene-7-carboxylic acid] | 12.6 µM |
| CCCCCCCCNC(=O)[C@H]1[C@@H](C(=O)O)[C@@H]2C=C[C@H]1c1ccccc12 (relative stereo) [Example 6, endo-(±)-cis-8-(octylamino-carbonyl)-5,6-benzobicyclo[2.2.2]oct-2-ene-7-carboxylic acid] | 25.1 µM |
| O=C(NCC12CC3CC(CC(C3)C1)C2)C1C2c3ccccc3C(c3cc4ccccc4cc32)C1C(=O)N1CCC[C@@H]1C(=O)O (stereo partly drawn) [Example 20, endo and exo cis-7-(2-R-carboxypyrrolidinocarbonyl)-8-(1-adamantylmethylaminocarbonyl)-2,3-benzo-5,6-(2,3-naphtho)bicyclo[2.2.2]octane] | 0.158 µM |
| COC(=O)[C@@H]1CCCN1C(=O)C1C2c3ccccc3C(c3cc4ccccc4cc32)C1C(=O)NCC12CC3CC(CC(C3)C1)C2 (stereo partly drawn) [Example 21, endo and exo cis-7-(2-S-methoxy-carbonylpyrrolidinocarbonyl)-8-(1-adamantylmethylaminocarbonyl)-2,3-benzo-5,6-(2,3-naphtho) bicyclo-[2.2.2]octane] | 0.398 µM |
| O=C(NCC12CC3CC(CC(C3)C1)C2)C1C2C=CC(c3ccccc32)C1C(=O)N1C[C@H](O)C[C@@H]1C(=O)O (stereo partly drawn) [Example 28, endo-cis-7-(2-R-carboxy-4-R-hydroxy-pyrrolidinocarbonyl)-8-(1-adamantylmethylaminocarbonyl)-5,6-benzo-bicyclo[2.2.2]oct-2-ene] | 2 µM |
| COC(=O)[C@H]1CCCN1C(=O)C1C2C=CC(c3ccccc32)C1C(=O)NCC12CC3CC(CC(C3)C1)C2 (stereo partly drawn) [Example 32, exo-cis-7-(2-R-methoxycarbonyl-pyrrolidinocarbonyl)-8-(1-adamantylmethylaminocarbonyl)-5,6-benzo-bicyclo[2.2.2]oct-2-ene] | 0.316 µM |
| C[C@H](NC(=O)[C@H]1CCCN1C(=O)C1C2CCC(c3ccccc32)C1C(=O)NCC12CC3CC(CC(C3)C1)C2)C(=O)O (stereo partly drawn) [Example 40, cis-exo-7-(2R-(1S-carboxyethylaminocarbonyl)-pyrrolidinocarbonyl)-8-(1-adamantylmethylaminocarbonyl)-2,3-benzobicyclo-[2.2.2.]octane] | 7.94 µM |
| C[C@@H](NC(=O)[C@@H]1CCCN1C(=O)C1C2CCC(c3ccccc32)C1C(=O)NCC12CC3CC(CC(C3)C1)C2)C(=O)O (stereo partly drawn) [Example 44, cis-exo-7-(2S-(1R-carboxyethylaminocarbonyl)-pyrrolidinocarbonyl)-8-(1-adamantylmethylaminocarbonyl)-2,3-benzobicyclo[2.2.2]octane] | 1 µM |
| C[C@@H](NC(=O)C[C@@H]1CCCN1C(=O)C1C2CCC(c3ccccc32)C1C(=O)NCC12CC3CC(CC(C3)C1)C2)C(=O)O (stereo partly drawn) [Example 52, cis-endo-7-(2S-(1R-carboxyethylaminocarbonylmethyl)-pyrrolidinocarbonyl)-8-(1-adamantylmethylaminocarbonyl)-2,3-benzobicyclo[2.2.2]octane] | 0.1 µM |

More lines, now with the values ahead:

| Ki | Structure (SMILES) |
| --- | --- |
| 0.398 µM | O=C(O)CNC(=O)[C@H]1CCCN1C(=O)C1C2CCC(c3ccccc32)C1C(=O)NCC12CC3CC(CC(C3)C1)C2 (stereo partly drawn) [Example 46, cis-endo-7-(2R-carboxymethylaminocarbonyl-pyrrolidinocarbonyl)-8-(1-adamantylmethylaminocarbonyl)-2,3-benzobicyclo[2.2.2]octane] |
| 1.26 µM | C[C@@H](NC(=O)[C@H]1CCCN1C(=O)C1C2CCC(c3ccccc32)C1C(=O)NCC12CC3CC(CC(C3)C1)C2)C(=O)O (stereo partly drawn) [Example 47, cis-endo-7-(2R-(1R-carboxyethylaminocarbonyl)-pyrrolidinocarbonyl)-8-(1-adamantylmethylaminocarbonyl)-2,3-benzobicyclo[2.2.2]octane] |
| 0.794 µM | C[C@H](NC(=O)[C@H]1CCCN1C(=O)C1C2CCC(c3ccccc32)C1C(=O)NCC12CC3CC(CC(C3)C1)C2)C(=O)O (stereo partly drawn) [Example 48, cis-endo-7-(2R-(1S-carboxyethylaminocarbonyl)-pyrrolidinocarbonyl)-8-(1-adamantylmethylaminocarbonyl)-2,3-benzobicyclo[2.2.2]octane] |
| 3.98 µM | O=C(O)CNC(=O)[C@@H]1CCCN1C(=O)C1C2CCC(c3ccccc32)C1C(=O)NCC12CC3CC(CC(C3)C1)C2 (stereo partly drawn) [Example 49, cis-endo-7-(2S-carboxymethylaminocarbonyl-pyrrolidinocarbonyl)-8-(1-adamantylmethylaminocarbonyl)-2,3-benzobicyclo[2.2.2]octane] |
| 2.51 µM | C[C@@H](NC(=O)[C@@H]1CCCN1C(=O)C1C2CCC(c3ccccc32)C1C(=O)NCC12CC3CC(CC(C3)C1)C2)C(=O)O (stereo partly drawn) [Example 50, cis-endo-7-(2S-(1R-carboxyethylaminocarbonyl)-pyrrolidinocarbonyl)-8-(1-adamantylmethylaminocarbonyl)-2,3-benzobicyclo[2.2.2]octane] |
| 5.01 µM | C[C@H](NC(=O)[C@@H]1CCCN1C(=O)C1C2CCC(c3ccccc32)C1C(=O)NCC12CC3CC(CC(C3)C1)C2)C(=O)O (stereo partly drawn) [Example 51, cis-endo-7-(2S-(1S-carboxyethylaminocarbonyl)-pyrrolidinocarbonyl)-8-(1-adamantylmethylaminocarbonyl)-2,3-benzobicyclo[2.2.2]octane] |
